Values after ≈ are worked out from the molar mass of the structure shown.
Key:
Tankyrase = conditions: as reported in the cited publication / patent application; read-out: cellular assay: EC50; cited from earlier work
[1] = Microsomal stability (intrinsic clearance), mouse liver microsomes; format: in vitro ADME; conditions: pH 7.4
Excerpt: (§1) Test Method Microsomal Stability (Intrinsic Clearance)
(§2) A microsomal stability assay is used to measure in vitro clearance (Clint). The assay involves measuring the rate of disappearance of a compound due to its intrinsic attitude to be metabolized (“intrinsic” meaning that the disappearance is not affected by other properties like permeability, binding etc. that play a role when quantifying in vivo clearance). The microsomal stability (intrinsic clearance, Clint) and thus metabolic stability is generally given as μl/min/mg protein. It can be visualized as the volume of solution that 1 mg of microsomes is able to clear of the compound in one minute.
(§3) A Tecan Genesis workstation (RSP 150/8) was used for to perform the microsomal incubations. Analysis was carried out using a Waters ACQUITY UPLC system coupled to an ABSciex API3000 mass spectrometer. Data analysis was performed using Assay Explorer (Symyx).
(§4) Chemicals • Potassium phosphate buffer: 0.05 M potassium phosphate buffer pH 7.4 containing 1 mM MgCl2 • NADPH (nicotinamide adenine dinucleotide phosphate): 22.5 mg NADPH-Na4 in 1.8 ml potassium phosphate buffer • Acetonitrile: 50 Vol % acetonitrile (1 volume acetonitrile, 1 volume water) • DMSO: 20 Vol % DMSO in water • Stock solution of 20 mg/ml human or mouse liver microsomes (protein)/ml in phosphate buffer
(§5) Stock solution of 10 mM compound in 100% DMSO

TNKS1 = target: T1, TNKS1 (Homo sapiens, UniProt O95271); assay: TNKS1 activity ELISA (autoparsylation assay); format: biochemical; conditions: GST-tagged Tnks-1 (1023-1327 aa)
T1 construct: GST-tagged Tnks-1 (1023-1327 aa, prepared in-house); made in house
Procedure, shortened: (§6)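 GST-tagged TNKS1 or TNKS2 captured on glutathione plates and allowed to auto-PARsylate with biotinylated NAD with or without compound. Biotin-ADP-ribosylated enzyme detected by streptavidin-HRP and luminescence; IC50 relative to inhibitor-free reaction.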

[2] = Microsomal stability (intrinsic clearance), human liver microsomes; format: in vitro ADME; conditions: pH 7.4
Excerpt: as §1, §2, §3, §4, §5

TNKS2 = target: T2, TNKS2 (Homo sapiens, UniProt Q9H2K2); assay: TNKS2 activity ELISA (autoparsylation assay); format: biochemical; conditions: GST-tagged Tnks-2 (873-1166 aa); read-out: IC50 [M] TNKS2 ELISA
T2 construct: GST-tagged Tnks-2 (873-1166 aa, prepared in-house); made in house
Procedure, shortened: as §6

Solubility pH 7.4 = format: physicochemical; conditions: pH 7.4, aqueous buffer
Tankyrases = conditions: read-out: EC50 [M] TNKS cellular assay; DLD1 cells, 24 hours, Axin2 increase
Procedure: Measurement of Cellular Inhibition of Tankyrase
Cells of the colon carcinoma cell line DLD1 are plated in 96 well plates with 1.5×10^4 cells per well. Next day, cells are treated with a serial dilution of test compound in seven steps as triplicates with a final DMSO concentration of 0.3%. […] The amount of isolated Axin2 protein is determined in a Luminex^200 machine (Luminex Corporation) according to the manufacturer's instruction by counting 100 events per well. […] As controls cells are treated with solvent alone (neutral control) and with a Tankyrase reference inhibitor IWR-2 (3E−06 M) which refers as control for maximum increase of Axin2. For analysis, the obtained data are normalized against the untreated solvent control and fitted for determination of the EC50 values using the Assay Explorer software (Accelrys).

PARP-1 = target: T3, PARP-1 (Homo sapiens, UniProt P09874); assay: PARP-1 autoparsylation assay (HTRF); format: biochemical; conditions: His-tagged Parp-1, autoparsylation HTRF
T3 construct: purchased Enzo Life Sciences GmbH, Lörrach, Germany
Procedure, shortened: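 His-tagged enzyme auto-modifies itself using biotinylated NAD/NAD; product detected by TR-FRET between cryptate anti-His antibody and Xlent-streptavidin, as emission ratio.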

DLD-1-cancer cells = conditions: Huang et al., 2009; Nature; cited from earlier work

T2 sequence (Q9H2K2 873-1166): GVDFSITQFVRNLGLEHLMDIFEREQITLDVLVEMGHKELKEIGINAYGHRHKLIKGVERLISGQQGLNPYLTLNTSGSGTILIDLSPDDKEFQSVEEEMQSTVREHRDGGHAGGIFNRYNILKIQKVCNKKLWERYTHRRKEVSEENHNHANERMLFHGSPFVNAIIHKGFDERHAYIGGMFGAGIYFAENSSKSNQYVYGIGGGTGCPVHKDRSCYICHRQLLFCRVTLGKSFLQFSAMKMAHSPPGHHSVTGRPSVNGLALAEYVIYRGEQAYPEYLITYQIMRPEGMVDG
T1 sequence (O95271 1023-1327): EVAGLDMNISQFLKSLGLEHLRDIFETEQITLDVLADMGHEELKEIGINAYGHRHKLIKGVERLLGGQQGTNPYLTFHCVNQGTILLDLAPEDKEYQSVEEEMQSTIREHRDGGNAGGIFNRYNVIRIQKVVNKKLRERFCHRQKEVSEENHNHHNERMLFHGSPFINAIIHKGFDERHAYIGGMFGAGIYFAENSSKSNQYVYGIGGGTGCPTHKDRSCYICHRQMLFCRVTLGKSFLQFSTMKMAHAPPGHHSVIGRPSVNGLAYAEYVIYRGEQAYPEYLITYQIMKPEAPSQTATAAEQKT
T3 sequence (P09874 whole entry): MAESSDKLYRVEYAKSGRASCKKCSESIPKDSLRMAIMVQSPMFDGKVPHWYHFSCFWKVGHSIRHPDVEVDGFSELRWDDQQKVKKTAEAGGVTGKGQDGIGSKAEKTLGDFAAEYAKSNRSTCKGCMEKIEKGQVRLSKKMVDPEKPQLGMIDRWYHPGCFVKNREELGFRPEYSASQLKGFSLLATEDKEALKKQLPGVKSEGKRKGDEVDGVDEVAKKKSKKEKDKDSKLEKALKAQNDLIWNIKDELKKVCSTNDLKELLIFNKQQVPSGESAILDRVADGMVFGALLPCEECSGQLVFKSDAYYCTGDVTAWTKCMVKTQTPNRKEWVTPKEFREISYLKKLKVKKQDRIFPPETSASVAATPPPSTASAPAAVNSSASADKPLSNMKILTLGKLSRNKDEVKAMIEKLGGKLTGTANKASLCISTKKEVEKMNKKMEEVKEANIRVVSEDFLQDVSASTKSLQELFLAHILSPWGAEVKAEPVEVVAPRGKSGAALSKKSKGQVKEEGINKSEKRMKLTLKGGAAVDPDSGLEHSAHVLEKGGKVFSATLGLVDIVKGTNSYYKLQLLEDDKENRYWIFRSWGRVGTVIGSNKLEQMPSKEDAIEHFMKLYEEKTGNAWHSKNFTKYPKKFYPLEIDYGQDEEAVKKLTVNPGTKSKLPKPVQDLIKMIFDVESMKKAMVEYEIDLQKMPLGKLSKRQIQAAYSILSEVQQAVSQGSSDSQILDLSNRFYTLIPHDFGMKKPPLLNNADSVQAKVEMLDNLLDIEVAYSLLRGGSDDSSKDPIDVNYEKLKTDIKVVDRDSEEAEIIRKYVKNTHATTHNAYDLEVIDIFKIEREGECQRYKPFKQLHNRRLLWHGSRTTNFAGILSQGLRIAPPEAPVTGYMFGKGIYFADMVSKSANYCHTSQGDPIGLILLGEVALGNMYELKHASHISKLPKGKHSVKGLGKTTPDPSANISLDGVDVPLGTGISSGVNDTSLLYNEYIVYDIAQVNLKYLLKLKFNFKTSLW

SMILES	EC50 (Tankyrase)	microsomal CLint [1]	IC50 (TNKS1)	microsomal CLint [2]	IC50 (TNKS2)	solubility (Solubility pH 7.4)	EC50 (Tankyrases)	IC50 (PARP-1)	growth of DLD-1-cancer cells (DLD-1-cancer cells)
COc1ccc(C(=O)C2CCN(CC(=O)N(Cc3nc4c(c(=O)[nH]3)COCC4)CC3CC3)CC2)cc1	35 nM	–	–	–	–	–	–	–	–
COc1ccccc1NC(=O)c1ccc(NC(=O)CCc2nc3ccccc3c(=O)[nH]2)cc1	320 nM	–	–	–	–	–	–	–	–
Cn1cc(C(=O)C2CCN(C(=O)CCCc3nn4cc(F)cc4c(=O)[nH]3)CC2)cn1 [Compound C179, 6-Fluoro-2-{4-[4-(1-methyl-1H-pyrazole-4-carbonyl)-piperidin-1-yl]-4-oxo-butyl}-3H-pyrrolo[2,1-f][1,2,4]triazin-4-one]	–	29 µL/min/mg	0.52 nM	11 µL/min/mg	1.1e-09 M	58 µg/mL (≈ 140 µM)	1.7e-08 M	11000 nM	–
COc1ccc(C(=O)C2CCN(C(=O)CCCc3nc4c(c(=O)[nH]3)COCC4)CC2)cc1C [Compound C199, 2-{4-[4-(4-Methoxy-3-methyl-benzoyl)-piperidin-1-yl]-4-oxo-butyl}-3,5,7,8-tetrahydro-pyrano[4,3-d]pyrimidin-4-one]	–	44 µL/min/mg	0.27 nM	12 µL/min/mg	2.2e-10 M	585 µg/mL (≈ 1290 µM)	3.3e-09 M	2200 nM	–
Cn1cc(C(=O)C2CCN(C(=O)CCCc3cn4c(F)ccc4c(=O)[nH]3)CC2)cn1 [Compound C208, 6-Fluoro-3-{4-[4-(1-methyl-1H-pyrazole-4-carbonyl)-piperidin-1-yl]-4-oxo-butyl}-2H-pyrrolo[1,2-a]pyrazin-1-one]	–	26 µL/min/mg	0.25 nM	< 10 µL/min/mg	2.3e-10 M	101 µg/mL (≈ 244 µM)	5.2e-09 M	6000 nM	–
CCn1cc(C(=O)C2CCN(C(=O)CCCc3nn4cccc4c(=O)[nH]3)CC2)cn1 [Compound C214, 2-{4-[4-(1-Ethyl-1H-pyrazole-4-carbonyl)-piperidin-1-yl]-4-oxo-butyl}-3H-pyrrolo[2,1-f][1,2,4]triazin-4-one]	–	41 µL/min/mg	2.2 nM	21 µL/min/mg	1.3e-09 M	394 µg/mL (≈ 960 µM)	1.5e-08 M	8500 nM	–
Oc1nc(-c2ccc(C(F)(F)F)cc2)nc2c1CSCC2 [XAV939]	–	–	–	–	–	–	–	–	inhibits growth
